Measurements reported in patent US6858383B2, “Compositions and methods for the treatment and prevention of cardiovascular diseases and disorders, and for identifying agents therapeutic therefor” (Medlyte, Inc., priority 2000, dated 2005).

Assays:
Adult rat cardiomyocytes = experiment: Hypoxia-induced sphingosine (SPH) production/release in cultured cardiomyocytes, HPLC of extracted sphingolipids; assay type: cell-based
Description: Adult rat cardiomyocytes were subjected to hypoxic conditions as described above and assayed for their ability to produce sphingolipid bases involved in the sphingomyelin signal transduction cascade.
Cardiomyocytes were cultured on plastic dishes that were placed in a humidified modular incubator chamber (ICN Biomedicals, Aurora, Ohio) pressurized to 0.04-0.05 psi by the particular gas mixture used in the treatment. Warm (37° C.) Tyrode's solution containing 0.2 mM BSA, ampicillin ([…]), kanamycin (100 mg/mL) and fungizone (20 μg/mL) was gassed in a 50 mL sterile conical for 15 minutes with 95%N2/5% CO2 prior to adding the solution to the cultured cells. The pO2 was monitored by a Micro pO2 System oxygen electrode (Lasar Research Labs, Los Angeles, Calif.) and found to be 4.0 PPM for the duration of the hypoxia condition. […] The pH of control and experimental cell cultures was monitored with a micro pH electrode (Beetrode pH Electrodes, Sarasota, Fla.) and remained constant at pH=7.26+/−0.02 for normoxic cells and 7.15+/−0.03 for hypoxic cells throughout the experiment. […]
The HPLC analysis was performed using a Beckman (Fullerton, Calif.) System Gold 118 Solvent Module and 507e Autosampler. A Jasco (Easton, Md.) FP-920 Intelligent Fluorescence Detector was used with an excitation wavelength of 330 nm and emission wavelength of 455 nm. […]

cultured cardiomyocytes [1] = conditions: S-1-P applied to cultured cardiomyocytes; cited from earlier work
[2] = Fate of 3H-SPH incubated in whole blood, TLC; assay type: in vitro ADME, human
Description: Experiments were carried out to determine the fate of any SPH that might be released from cells or platelets into the extracellular compartment. Whole blood samples were incubated in vitro for up to 15 hours with ^3H-SPH, followed by thin layer chromatography (TLC) to examine which, if any, of the known metabolic products of the sphingomyelin pathway were radiolabeled as a result of metabolism of radiolabeled SPH.

cultured cardiomyocytes [3] = experiment: S-1-P applied to cultured cardiomyocytes: apoptosis and calcium deregulation; assay type: cell-based, rat; conditions: S-1-P treatment of cultured cardiomyocytes
Text: Exogenously applied […] is capable of activating blood platelets (Yatomi et al., J. Biol. Chem. 272:5291-5297, 1997; Yatomi et al., Blood 86:193-202, 1995). […] The first is to act on the platelets to promote the clotting response and further exacerbate the ischemia. Secondly, the platelet-derived […] acts in a paracrine fashion on neighboring endothelial and myocardial cells to promote calcium deregulation and apoptosis. On the cardiomyocytes, the consequence is to promote calcium overload. The endothelial cell response is to promote vasoconstriction and further limit the blood supply through the coronary vasculature. […] Extracellular […] is the ligand for a novel class of G protein-coupled receptors (GPCRs). Such receptors were first described as an orphan GPCRs cloned from human umbilical vein endothelial cells (Hla et al., J. Biol. Chem. 265:9308-9313, 1990; Lynch et al., Trends Pharmacol. Sci. 20:473-475, 1999). […] However, cardiac tissues are composed of diverse cell types, including endothelial cells, which have high levels of EDG-1 expression (Hla et al., J. Biol. Chem. 265:9308-9313, 1990). […] Recently a EDG-1 gene and its protein expression were determined in primary cultures of neonatal rat cardiomyocytes and in adult rat ventricular tissue (Nakajima et al., Biophysical J. 78:319 A, 2000). […]

[4] = biological target: tumor necrosis factor alpha (TNFα) released by cultured rat cardiomyocytes (rat) (UniProt P16599); experiment: cell-based or functional assay
[5] = system: isolated perfused rat heart; experiment: Langendorff rat heart model of global ischemia and reperfusion; conditions: 0.1 mM gentamicin recirculated 30 min; 40 min global ischemia; 45 min reperfusion
Description: A rat model of ischemia and reperfusion was used to evaluate the therapeutic potential of a gentamicin, an amino glycoside that inhibits sphingomyelinase.
Gentamicin vehicle solution was prepared as follows. A stock solution of 0.1 M Gentamicin was prepared by adding 70 mg of Gentamicin Sulfate (Sigma, G1264) to 1 ml of KH Buffer. KH buffer (150 ml) was combined with 150 μl)l of the stock solution to yield a 0.1 mM solution.
The protocol used was essentially that described by Sakai et al. (A device for recording left ventricular contraction and electrocardiogram in nonworking isolated perfused rat heart, Jpn J Pharmacol 28:223-9, 1978), and Zelinski et al., (Phosphatidylcholine biosynthesis in isolated hamster heart, J Biol Chem. 255:11423-8, 1980) with the exception, in the latter instance, that rat studies were used in the experiments described herein instead of hamster hearts.
In brief, rats were anesthetized and their hearts were excised. The isolated hearts were cannulated and attached to Langendorff perfusion apparatus, and perfused with KH buffer. The hearts were allowed to stabilize for 5-10 min. […]
A small hole was cut in the left atrium of each animal to expose the mitral valve. […] Left ventricular pressure was measured and recorded using the MacLab program. […]
After about 45 min., the perfusate was turned off and the ventricular pressure was no longer recorded. […]

tumor necrosis factor alpha (TNFα) released by cultured rat cardiomyocytes (rat), sequence (P16599 80-235 limits assumed): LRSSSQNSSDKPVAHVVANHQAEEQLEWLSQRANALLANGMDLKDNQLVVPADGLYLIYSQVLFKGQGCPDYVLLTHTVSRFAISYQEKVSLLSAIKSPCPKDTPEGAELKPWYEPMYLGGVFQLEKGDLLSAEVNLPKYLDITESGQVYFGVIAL

C[N+](C)(C)C[C@H](O)CC(=O)[O-] [L-carnitine]
hypoxia-induced production of sphingosine (Adult rat cardiomyocytes; cellular model): blocks
amount of total SPH (Adult rat cardiomyocytes; pretreated 30 min prior to hypoxia (5 hours), TNFRII:Fc 0.5 ng/mL, L-carnitine 20 ng/mL, adult cardiomyocytes): significantly (p<0.01) reducing

CCCCCCCCCCCCC/C=C/[C@@H](O)[C@@H](N)COP(=O)(O)O [S-1-P, sphingosine-1-phosphate]
apoptosis of cultured cardiomyocytes (cultured cardiomyocytes [1]): resulted in apoptosis
stability in whole blood ([2]; 15-hour time course): very stable
average calcium level combining both diastolic and systolic responses (cultured cardiomyocytes [3]): significantly increased

CCCCCCCCCCCCC/C=C/[C@@H](O)[C@@H](N)CO [^3H-SPH, D(+)-erythro-2-amino-4-trans-octadecene-1,3-diol]
conversion to ceramide or sphingomyelin ([2]; whole blood in vitro, up to 15 hours): not converted
conversion of 3H-SPH to 3H-S-1-P ([2]; whole blood in vitro, within 20 minutes): 86%

TNFRII:Fc receptor fragment (from UniProt P20333 23-257) (Fc fusion)
SPH release from hypoxic cardiomyocytes after pretreatment with TNFRII:Fc [4]: 3 fold

gentamicin
ischemia and reperfusion injury (left ventricular pressure) [5]: mitigated
